Reference: US20050181467A1, “ATP extraction method” (priority 2000, published 2005)

Target: luciferase (Photinus pyralis, UniProt P08659)
Assay: ATP-luciferin-luciferase assay (light intensity, luminometer)
Format: biochemical, firefly
Conditions: for effect on light intensity: diluted concentrations compared with the positively charged extractant, 5; for neutralizing the inhibitory effect(s) of commonly employed extractants on the ATP-luciferin-luciferase light reaction: overall conclusion, SDS at the proper concentrations
Method: ATP-luciferin-luciferase assays were conducted to determine the effect of the following on assay activity: (1) Tween® 20 (2% Tween® 20 in 50 mM tricene buffer, pH 6.75), (2) MgSO4 (0.229 g/L in 50 mM tricene buffer, pH 7.46), (3) SDS (0.268 g/L in 50 mM tricene buffer, pH 7.61) and (4) a combination of MgSO4 and various amounts of Tween®. Each of these substances were assayed alone and in the presence of a commonly used positively charged ATP extractant, i.e., benzalkonium chloride (0.3325 g/L). Many of the assays were conducted in the presence of the following sanitizers: Ster-Bac® (1 oz/4 gal); Ster-Bac® (2.5 ml/L); XY-12 (200 ppm); XY-12 (600 ppm); Simplex Quat (1 oz/gal); Kleer-Mor® (1 oz/2 gal); and Kleer-Mor® (4 oz/2 gal). The MgSO4 and SDS assays were conducted using molar concentrations of MgSO4 and SDS equal to that of the positively charged extractant, as well as using molar concentrations of MgSO4 and SDS diluted as compared to that of the positively charged extractant.
Depending on the substance being tested, sanitizer, neutralizer (i.e., Tween® 20, MgSO4 or SDS), ATP solution, luciferin/luciferase cocktail, extractant and/or benzalkonium chloride (in various combinations) were placed in a cuvette and light intensity was read. Each sanitizer was run in duplicate. A control tube containing buffer and ATP was also run. Light output was measured in a Monolight 3010 luminometer. Each experiment was conducted in total volume of 0.42 ml in the curvette.

Chain of luciferase (P08659 whole entry, species assumed): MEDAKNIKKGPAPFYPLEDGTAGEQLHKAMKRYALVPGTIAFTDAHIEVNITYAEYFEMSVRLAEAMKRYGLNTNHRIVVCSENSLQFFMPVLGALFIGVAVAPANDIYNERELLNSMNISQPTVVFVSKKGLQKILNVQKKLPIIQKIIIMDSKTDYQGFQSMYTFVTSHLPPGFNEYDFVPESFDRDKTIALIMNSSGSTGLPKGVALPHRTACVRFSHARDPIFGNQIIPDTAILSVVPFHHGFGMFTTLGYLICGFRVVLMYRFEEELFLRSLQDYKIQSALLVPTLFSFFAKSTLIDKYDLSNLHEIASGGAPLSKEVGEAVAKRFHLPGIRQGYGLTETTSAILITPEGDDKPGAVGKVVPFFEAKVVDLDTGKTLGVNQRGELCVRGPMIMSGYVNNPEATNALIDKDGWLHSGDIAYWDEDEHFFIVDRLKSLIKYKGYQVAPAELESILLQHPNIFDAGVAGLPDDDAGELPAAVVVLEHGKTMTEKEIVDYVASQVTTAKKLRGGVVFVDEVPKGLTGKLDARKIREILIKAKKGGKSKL

## O=S(=O)([O-])[O-].[Mg+2] [MgSO4, magnesium sulfate]
FIGS. 4A-4C
  effect on light intensity: increased light intensity over the undiluted MgSO4
Equal concentrations of neutralizer and extractant, with sanitizer, with extractant and alone, FIG. 3
  performance as neutralizer compared with SDS (intensity of light): performed better than SDS in all assays
Equal concentrations of neutralizer and positively charged extractant (benzalkonium chloride), various sanitizers, FIGS. 1 and 2
  performance as neutralizer compared with Tween 20 (intensity of light): performed better than Tween® 20 as a neutralizer for all sanitizers except one
extractant, sanitizer and ATP-luciferin-luciferase solution, FIGS. 6A, 6B
  neutralizing the effects of sanitizer: works at least as well and, in most cases, better than Tween® 20
  neutralizing the inhibitory effect(s) of commonly employed extractants on the ATP-luciferin-luciferase light reaction: more effective than Tween® 20

## CCCCCCCCCCCCOS(=O)(=O)[O-].[Na+] [SDS, sodium dodecyl sulfate]
Diluted 1:2 or more compared with the extractant, FIGS. 4A-4C
  neutralizing the inhibitory effects of benzalkonium chloride: effective in neutralizing the inhibitory effects of benzalkonium chloride
FIGS. 4A-4C
  effect on light intensity: did not affect (inhibit) light intensity
Equal concentrations of neutralizer and positively charged extractant, FIG. 3
  effect on the light reaction: not effective and inhibited the light reaction
  neutralizing the inhibitory effect(s) of commonly employed extractants on the ATP-luciferin-luciferase light reaction: neutralizes the inhibitory effect(s)
Present at too high a concentration
  effect on the light reaction at too high a concentration: completely eliminate the light reaction
